Measured values taken from US20090137572A1, “2-substituted-4-heteroaryl-pyrimidines useful for the treatment of proliferative disorders” (priority 2004, published 2009).
Values belong to the molecule of their own block, whether it stands above or below them.

How the values were obtained:
[1] = molecular target: T1, Aurora A kinase (Homo sapiens, UniProt O14965); assay: Aurora-A (human) kinase assay (Kemptide substrate); assay type: biochemical; settings: pIC50 is -log(IC50, M), 15 μM ATP; for IC50: read-out: Kinase Inhibition pIC50 Aurora A kinase (converted)
T1 construct: purchased
T1 sequence (O14965 1-403): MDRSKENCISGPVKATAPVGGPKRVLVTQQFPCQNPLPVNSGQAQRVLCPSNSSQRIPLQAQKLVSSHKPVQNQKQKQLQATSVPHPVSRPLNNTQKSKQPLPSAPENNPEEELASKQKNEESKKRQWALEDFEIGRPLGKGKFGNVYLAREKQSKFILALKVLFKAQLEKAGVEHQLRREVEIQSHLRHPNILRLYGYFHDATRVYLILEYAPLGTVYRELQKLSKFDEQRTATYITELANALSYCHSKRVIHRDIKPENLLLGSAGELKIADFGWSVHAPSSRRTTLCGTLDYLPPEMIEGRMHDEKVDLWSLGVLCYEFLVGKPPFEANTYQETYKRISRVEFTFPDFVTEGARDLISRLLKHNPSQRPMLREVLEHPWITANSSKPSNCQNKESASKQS
Experimental: Aurora-A (human) kinase assay. This was achieved by measurement of incorporation of radioactive phosphate from ATP into Kemptide substrate (LRRASLG), upon phosphorylation by commercially obtained aurora-A kinase. Assays were performed using 96-well plates and appropriate assay buffers (8 mM MOPS, 0.2 mM EDTA, pH 7.0), into which were added 5-10 ng of active enzyme with 200 μM substrate (Kemptide). The reactions were initiated by addition of Mg/ATP mix (10 mM MgAcetate+15 μM ATP with 30-50 kBq per well of [γ-^33P]-ATP) and mixtures incubated for 40 min at room temperature. Reactions were stopped by addition of 3% phosphoric acid, followed by filtration through p81 filterplates (Whatman Polyfiltronics, Kent, UK). After washing 5 times with 75 mM aq orthophosphoric acid and once in methanol, plates were dried, scintillant added and incorporated radioactivity measured in a scintillation counter (TopCount, Packard Instruments, Pangbourne, Berks, UK). Compounds for kinase assay were made up as 10 mM stocks in DMSO and diluted into 10% DMSO in assay buffer.

[2] = molecular target: CDK2-cycline E (Homo sapiens, UniProt P24941); assay: Kinase assay (radioactive phosphate incorporation), CDK2-cyclin E; assay type: biochemical; settings: read-out: Kinase Inhibition pIC50 CDK2-cycline E (converted)
Experimental: Kinase assays. The compounds of the invention above were investigated for their ability to inhibit the enzymatic activity of various protein kinases (Table 2). This was achieved by measurement of incorporation of radioactive phosphate from ATP into appropriate polypeptide substrates. Recombinant protein kinases and kinase complexes were produced or obtained commercially. Assays were performed using 96-well plates and appropriate assay buffers (typically 25 mM β-glycerophosphate, 20 mM MOPS, 5 mM EGTA, 1 mM DTT, 1 mM […], pH 7.4), into which were added 2-4 μg of active enzyme with appropriate substrates. The reactions were initiated by addition of Mg/ATP mix (15 mM MgCl2+100 μM ATP with 30-50 kBq per well of [γ-^32P]-ATP) and mixtures incubated as required at 30° C. Reactions were stopped on ice, followed by filtration through p81 filterplates or GF/C filterplates (Whatman Polyfiltronics, Kent, UK). After washing 3 times with 75 mM aq orthophosphoric acid, plates were dried, scintillant added and incorporated radioactivity measured in a scintillation counter (TopCount, Packard Instruments, Pangbourne, Berks, UK). Compounds for kinase assay were made up as 10 mM stocks in DMSO and diluted into 10% DMSO in assay buffer.

Structure (SMILES): COCCNS(=O)(=O)c1ccc(Nc2nccc(-c3sc(C)nc3C)n2)cc1 [Compound 43, 4-[4-(2,4-Dimethyl-thiazol-5-yl)-pyrimidin-2-ylamino]-N-(2-methoxy-ethyl)-benzenesulfonamide]
- IC50 [1]: 126 nM
- IC50 [2]: 10 nM

Structure (SMILES): CCN(CC)S(=O)(=O)c1ccc(Nc2nccc(-c3sc(NC)nc3C)n2)cc1 [Compound 52, N,N-Diethyl-4-[4-(4-methyl-2-methylamino-thiazol-5-yl)-pyrimidin-2-ylamino]-benzenesulfonamide]
- IC50 [1]: 100 nM
- IC50 [2]: 1000 nM

Structure (SMILES): CNc1nc(C)c(-c2ccnc(N)n2)s1 [Compound 85, 4-(4-Methyl-2-methylamino-thiazol-5-yl)-pyrimidin-2-ylamine]
- IC50 [1]: 398 nM

Structure (SMILES): CCNc1nc(C)c(-c2ccnc(N)n2)s1 [Compound 86, 4-(2-Ethylamino-4-methyl-thiazol-5-yl)-pyrimidin-2-ylamine]
- IC50 [1]: 1000 nM

Structure (SMILES): CCN(C(C)=O)c1nc(C)c(-c2ccnc(N)n2)s1 [Compound 87, N-[5-(2-Amino-pyrimidin-4-yl)-4-methyl-thiazol-2-yl]-N-ethyl-acetamide]
- IC50 [1]: 158 nM

Structure (SMILES): Cc1nc(N(C)C)sc1-c1ccnc(N)n1 [Compound 88, 4-(2-Dimethylamino-4-methyl-thiazol-5-yl)-pyrimidin-2-ylamine]
- IC50 [1]: 1580 nM

Structure (SMILES): CCc1cc(-c2nc(C)c(-c3ccnc(Nc4cccc(CNC(C)=O)c4)n3)s2)ccn1 [Compound 105, N-(3-{4-[2-(2-Ethyl-pyridin-4-yl)-4-methyl-thiazol-5-yl]-pyrimidin-2-ylamino}-benzyl)-acetamide]
- IC50 [1]: 316 nM

Structure (SMILES): CCNc1nc(C)c(-c2ccnc(Nc3ccc(OC)cc3C)n2)s1 [Compound 111, [4-(2-Ethylamino-4-methyl-thiazol-5-yl)-pyrimidin-2-yl]-(4-methoxy-2-methyl-phenyl)-amine]
- IC50 [1]: 3160 nM

Structure (SMILES): Cc1nc(CO)sc1-c1ccnc(Nc2ccc(N(C)C)cc2)n1 [Compound 132, {5-[2-(4-Dimethylamino-phenylamino)-pyrimidin-4-yl]-4-methyl-thiazol-2-yl}-methanol]
- IC50 [1]: 100 nM
- IC50 [2]: 631 nM

Structure (SMILES): Cc1nc(-c2ccc(N3CCOCC3)cc2)sc1-c1ccnc(Nc2ccc(N3CCOCC3)cc2)n1 [Compound 147, {4-[4-Methyl-2-(4-morpholin-4-yl-phenyl)-thiazol-5-yl]-pyrimidin-2-yl}-(4-morpholin-4-yl-phenyl)-amine]
- IC50 [1]: 501 nM

Structure (SMILES): Cc1nc(-c2cccnc2)sc1-c1ccnc(Nc2ccc3c(c2)OCCO3)n1 [Compound 180, (2,3-Dihydro-benzo[1,4]dioxin-6-yl)-[4-(4-methyl-2-pyridin-3-yl-thiazol-5-yl)-pyrimidin-2-yl]-amine]
- IC50 [1]: 1580 nM

Structure (SMILES): Cc1nc(NCCc2ccccc2)sc1-c1ccnc(Nc2ccc3c(c2)OCCO3)n1 [Compound 183, (2,3-Dihydro-benzo[1,4]dioxin-6-yl)-[4-(4-methyl-2-phenethylamino-thiazol-5-yl)-pyrimidin-2-yl]-amine]
- IC50 [1]: 1260 nM

Structure (SMILES): COc1ccc(Nc2nccc(-c3sc(-c4cccnc4)nc3C)n2)cc1C [Compound 186, (4-Methoxy-3-methyl-phenyl)-[4-(4-methyl-2-pyridin-3-yl-thiazol-5-yl)-pyrimidin-2-yl]-amine]
- IC50 [1]: 501 nM

Next, values leading:

- IC50 [1]: 2510 nM
Structure (SMILES): COc1ccc(Nc2nccc(-c3sc(C)nc3C)n2)c(C)c1 [Compound 112, [4-(2,4-Dimethyl-thiazol-5-yl)-pyrimidin-2-yl]-(4-methoxy-2-methyl-phenyl)-amine]

- IC50 [1]: 5010 nM
Structure (SMILES): COc1ccc(C)c(Nc2nccc(-c3sc(C)nc3C)n2)c1 [Compound 113, [4-(2,4-Dimethyl-thiazol-5-yl)-pyrimidin-2-yl]-(5-methoxy-2-methyl-phenyl)-amine]

- IC50 [1]: 126 nM
- IC50 [2]: 200 nM
Structure (SMILES): CCNc1nc(C)c(-c2ccnc(Nc3ccc(N4CCOCC4)c(Cl)c3)n2)s1 [Compound 134, (3-Chloro-4-morpholin-4-yl-phenyl)-[4-(2-ethylamino-4-methyl-thiazol-5-yl)-pyrimidin-2-yl]-amine]

- IC50 [1]: 1580 nM
Structure (SMILES): Cc1nc(C)c(-c2ccnc(Nc3ccc(N4CCOCC4)cc3C)n2)s1 [Compound 139, [4-(2,4-Dimethyl-thiazol-5-yl)-pyrimidin-2-yl]-(2-methyl-4-morpholin-4-yl-phenyl)-amine]

- IC50 [1]: 1580 nM
Structure (SMILES): Cc1ccc(-c2nc(C)c(-c3ccnc(Nc4ccc(N5CCOCC5)cc4)n3)s2)c(C)c1 [Compound 140, {4-[2-(2,4-Dimethyl-phenyl)-4-methyl-thiazol-5-yl]-pyrimidin-2-yl}-(4-morpholin-4-yl-phenyl)-amine]

- IC50 [1]: 158 nM
- IC50 [2]: 794 nM
Structure (SMILES): Cc1nc(C)c(-c2ccnc(Nc3ccc(N4CCOCC4)c(Cl)c3)n2)s1 [Compound 141, (3-Chloro-4-morpholin-4-yl-phenyl)-[4-(2,4-dimethyl-thiazol-5-yl)-pyrimidin-2-yl]-amine]

- IC50 [1]: 50.1 nM
- IC50 [2]: 126 nM
Structure (SMILES): Cc1nc(NC(C)(C)C)sc1-c1ccnc(Nc2ccc(N3CCOCC3)cc2)n1 [Compound 143, [4-(2-tert-Butylamino-4-methyl-thiazol-5-yl)-pyrimidin-2-yl]-(4-morpholin-4-yl-phenyl)-amine]

- IC50 [1]: 100 nM
- IC50 [2]: 251 nM
Structure (SMILES): COCCNc1nc(C)c(-c2ccnc(Nc3ccc(N4CCOCC4)cc3)n2)s1 [Compound 144, {4-[2-(2-Methoxy-ethylamino)-4-methyl-thiazol-5-yl]-pyrimidin-2-yl}-(4-morpholin-4-yl-phenyl)-amine]

- IC50 [1]: 3980 nM
Structure (SMILES): CNc1nc(C)c(-c2ccnc(Nc3ccc(N4CCOCC4)cc3C)n2)s1 [Compound 145, [4-(4-Methyl-2-methylamino-thiazol-5-yl)-pyrimidin-2-yl]-(2-methyl-4-morpholin-4-yl-phenyl)-amine]

- IC50 [1]: 2510 nM
Structure (SMILES): CCNc1nc(C)c(-c2ccnc(Nc3ccc(N4CCOCC4)cc3C)n2)s1 [Compound 146, [4-(2-Ethylamino-4-methyl-thiazol-5-yl)-pyrimidin-2-yl]-(2-methyl-4-morpholin-4-yl-phenyl)-amine]

- IC50 [1]: 398 nM
- IC50 [2]: 251 nM
Structure (SMILES): CNc1ccc(Nc2nccc(-c3sc(C)nc3C)n2)cc1C(F)(F)F [Compound 149, N^4-[4-(2,4-Dimethyl-thiazol-5-yl)-pyrimidin-2-yl]-N^1-methyl-2-trifluoromethyl-benzene-1,4-diamine]

- Kinase Inhibition pIC50 Aurora A kinase [1]: 6.1
Structure (SMILES): Cc1nc(N(C)c2cccnc2)sc1-c1ccnc(Nc2ccc(N3CCOCC3)cc2)n1 [Compound 153, {4-[4-Methyl-2-(methyl-pyridin-3-yl-amino)-thiazol-5-yl]-pyrimidin-2-yl}-(4-morpholin-4-yl-phenyl)-amine]

- IC50 [1]: 251 nM
Structure (SMILES): Cc1cc(Nc2nccc(-c3sc(CO)nc3C)n2)ccc1N1CCCCC1 [Compound 209, {4-Methyl-5-[2-(3-methyl-4-piperidin-1-yl-phenylamino)-pyrimidin-4-yl]-thiazol-2-yl}-methanol]

- IC50 [1]: 251 nM
Structure (SMILES): Cc1nc(C)c(-c2ccnc(Nc3ccc(N4CCOCC4)c(C(N)=O)c3)n2)s1 [Compound 210, 5-[4-(2,4-Dimethyl-thiazol-5-yl)-pyrimidin-2-ylamino]-2-morpholin-4-yl-benzamide]

- IC50 [1]: 251 nM
Structure (SMILES): Cc1nc(C)c(-c2ccnc(Nc3ccc(C)c(N4CCOCC4)c3)n2)s1 [Compound 214, [4-(2,4-Dimethyl-thiazol-5-yl)-pyrimidin-2-yl]-(4-methyl-3-morpholin-4-yl-phenyl)-amine]
